Experimental data reported in US4287194A, “Compositions with potentiated hypotensive effects” (priority 1978, dated 1981).
Values joined by “and” are separate entries in the source; they are usually repeats but may differ in a detail not shown here. Identical values can stand only once.

How the values were obtained:
[1] = system: awake dogs with renal hypertension; assay: Hypotensive effect on awake dogs suffering from renal hypertension (Grollman operation); format: in vivo
Source text: (2) Determination of the hypotensive effect on awake dogs suffering from renal hypertension

[2] = Oral acute toxicity (LD50) of the individual components, one week observation; conditions: mouse, in vivo
Experimental: Based on the data given in points 1 and 2 above it can be stated that a considerable potentiating synergism appears with respect to the hypotensive effect when applying the compounds of formula (I) in combination with those of formula (V). In the following it was investigated whether this synergism also appears with respect to the toxicity. In the first test series the LD50 values of the individual components were determined on CFLP-mice. The compounds were administered orally, and the animals were kept under observation for one week. The LD50 values of the individual compounds are as follows: […]

[3] = system: genetically hypertensive awake rats; assay: Hypotensive effect on awake rats suffering from genetic hypertension (method of Eaton, modified); format: in vivo, Wistar-Okamoto rats
[4] = Toxicity (mortality) of combinations: pre-treatment for one hour with 11,473 or 11,121, then pindolol; design: species or system CFLP-mice; conditions: mouse, in vivo, po
Experimental: Based on the data given in points 1 and 2 above it can be stated that a considerable potentiating synergism appears with respect to the hypotensive effect when applying the compounds of formula (I) in combination with those of formula (V). In the following it was investigated whether this synergism also appears with respect to the toxicity. In the first test series the LD50 values of the individual components were determined on CFLP-mice. The compounds were administered orally, and the animals were kept under observation for one week. The LD50 values of the individual compounds are as follows:
To determine the toxicity values of the combinations dosages calculated on the basis of the isobole construction principle were applied. The animals were pre-treated for one hour with various dosages of 11,473 or 11,121, and then varying dosages of pindolol were administered.

## COC(=O)c1ccc(O)c(CON)c1.Cl [11,121, 2-hydroxy-5-carbomethoxy-benzyloxyamine hydrochloride]
[1]; 5 mg/kg p.o.
  Blood pressure after 1 hour: 170.0 mmHg
  Blood pressure after 2 hours: 167.5 mmHg
  Blood pressure after 3 hours: 175.0 mmHg
  Blood pressure after 4 hours: 165.0 mmHg
  Blood pressure after 5 hours: 172.5 mmHg
  Blood pressure after 24 hours: 165.0 mmHg
  Blood pressure, basal value: 165.0 mmHg
[2]; p.o., one week observation
  LD50 at 168 h: 2900 mg/kg
[3]; 50 mg/kg p.o.
  Blood pressure after 2 hours: 170.0 mmHg
  Blood pressure after 5 hours: 163.0 mmHg
  Blood pressure after 24 hours: 169.0 mmHg
[3]; 50 mg/kg p.o., basal value
  Blood pressure, basal value: 168.2 mmHg

## CC(C)NCC(O)COc1cccc2ccccc12.Cl (stereo not drawn) [Propranolol, 1-(1-Naphthyloxy)-3-isopropylamino-2-propanol hydrochloride]
[3]; 1 mg/kg p.o.
  Blood pressure after 2 hours: 170.0 mmHg
  Blood pressure after 5 hours: 168.7 mmHg
  Blood pressure after 24 hours: 157.5 mmHg
[3]; 1 mg/kg p.o., basal value
  Blood pressure, basal value: 167.5 mmHg
[3]; 5 mg/kg p.o.
  Blood pressure after 2 hours: 178.6 mmHg
  Blood pressure after 5 hours: 175.9 mmHg
  Blood pressure after 24 hours: 181.8 mmHg
[3]; 5 mg/kg p.o., basal value
  Blood pressure, basal value: 186.4 mmHg
[3]; 10 mg/kg p.o.
  Blood pressure after 2 hours: 170.0 mmHg
  Blood pressure after 5 hours: 148.3 mmHg
  Blood pressure after 24 hours: 163.7 mmHg
[3]; 10 mg/kg p.o., basal value
  Blood pressure, basal value: 178.0 mmHg
[3]; Rattus norvegicus, po
  ED15: ~10 mg/kg

## Cl.NOCc1ccc([N+](=O)[O-])c(O)c1 [11,130, 3-hydroxy-4-nitro-benzyloxyamine hydrochloride]
[3]; 20 mg/kg p.o.
  Blood pressure after 2 hours: 183.0 mmHg
  Blood pressure after 5 hours: 176.0 mmHg
  Blood pressure after 24 hours: 172.0 mmHg
[3]; 20 mg/kg p.o., basal value
  Blood pressure, basal value: 174.0 mmHg

## CCOC(=O)CC(C)=NNc1ccc(Cl)nn1 [11,473, N^1-(3-Chloro-6-pyridazinyl)-N^2-(1-carbethoxy-2-propylidene)-hydrazine]
[2]; p.o., one week observation
  LD50 at 168 h: 360 mg/kg
[3]; 10 mg/kg p.o.
  Blood pressure after 2 hours: 194.0 mmHg
  Blood pressure after 5 hours: 197.0 mmHg
  Blood pressure after 24 hours: 198.0 mmHg
[3]; 10 mg/kg p.o., basal value
  Blood pressure, basal value: 195.0 mmHg

## CC(C)NCC(O)COc1cccc2[nH]ccc12.Cl (stereo not drawn) [Pindolol, 1-(4-indolyloxy)-3-isopropylamino-2-propanol hydrochloride]
[1]; 0.1 mg/kg p.o.
  Blood pressure after 1 hour: 133.3 mmHg
  Blood pressure after 2 hours: 133.3 mmHg
  Blood pressure after 3 hours: 153.0 mmHg
  Blood pressure after 4 hours: 156.7 mmHg
  Blood pressure after 5 hours: 160.0 mmHg
  Blood pressure after 24 hours: 153.3 mmHg
  Blood pressure, basal value: 156.7 mmHg
[2]
  LD50 at 168 h: 300 mg/kg
[4]; pindolol alone 60 mg/kg p.o.
  mortality: 0%
[4]; pindolol alone 90 mg/kg p.o.
  mortality: 0%
[4]; pindolol alone 135 mg/kg p.o.
  mortality: 8%
[4]; pindolol alone 200 mg/kg p.o.
  mortality: 16%
[4]; pindolol alone 300 mg/kg p.o.
  mortality: 46%
[4]; pindolol alone 450 mg/kg p.o.
  mortality: 75%
[3]; 0.25 mg/kg p.o., hydrochloride
  Blood pressure after 2 hours: 180.8 mmHg and 181.6 mmHg
  Blood pressure after 5 hours: 164.9 mmHg and 168.8 mmHg
  Blood pressure after 24 hours: 183.4 mmHg and 188.8 mmHg
[3]; 0.25 mg/kg p.o., basal value (before treatment), hydrochloride
  Blood pressure, basal value: 182.2 mmHg and 184.4 mmHg
[3]; 0.5 mg/kg p.o., hydrochloride
  Blood pressure after 2 hours: 161.4 mmHg and 191.2 mmHg and 172.1 mmHg
  Blood pressure after 5 hours: 160.5 mmHg and 188.3 mmHg and 160.8 mmHg
  Blood pressure after 24 hours: 150.5 mmHg and 188.9 mmHg and 188.6 mmHg
[3]; 0.5 mg/kg p.o., basal value, hydrochloride
  Blood pressure, basal value: 165.0 mmHg and 200.0 mmHg and 200.3 mmHg
[3]; 1 mg/kg p.o.
  Blood pressure after 2 hours: 135.0 mmHg
  Blood pressure after 5 hours: 135.0 mmHg
  Blood pressure after 24 hours: 151.1 mmHg
[3]; 1 mg/kg p.o., basal value
  Blood pressure, basal value: 164.4 mmHg
[3]; 5 mg/kg p.o.
  Blood pressure after 2 hours: 154.5 mmHg
  Blood pressure after 5 hours: 124.5 mmHg
  Blood pressure after 24 hours: 161.0 mmHg
[3]; 5 mg/kg p.o., basal value
  Blood pressure, basal value: 172.5 mmHg
[3]; Rattus norvegicus, po, read-out: ED30% (dosage which decreases the blood pressure by 30% related to the value before treatment), p.o., given alone
  ED30: ~5 mg/kg
[3]; p.o., given alone, hydrochloride
  ED30% (dosage which decreases the blood pressure by 30% related to the value before treatment): 5 mg/kg
